This note sets out measurements from US20110039935A1, “USE OF PHARMACOLOGICALLY ACTIVE CHEMICAL COMPOUNDS” (ENTRESS AB, priority 2007, published 2011).

Molecules are shown by their SMILES. Entries after “also recorded” stand apart in the source; their conditions may differ.

The test system of data set [1] is abdominal aorta sections of bypass and sham operated rats. As to the kind of experiment: Elastic recoil of aorta sections from bypass- and sham-operated rats given AKG. Type of data set: in vivo, Sprague Dawley rats. On the procedure: A dissected portion of the abdominal aorta, prior to the right- and left common iliac arteries, was carefully cleaned to remove adhering tissues.
Force was measured using a FTO3 force displacement transducer (Grass Instrument, West Warwick, R.I.) connected to a home-built bridge amplifier which was interfaced with a 8S PowerLab A/D Converter (ADInstruments, Chalgrove, Oxfordshire, UK).
The recorded signal was adjusted to zero for un-tensioned aorta sections with the aid of an offset dial mounted on the pre-amplifier unit. Each aorta section was then exposed to approx. 5 step-wise increases in tension (each step being approx. 0.09 N), until a final maximal tension of 0.49 N (measured using the FT03 Grass Force transducer) was achieved. […] Aorta sections were subsequently removed and weighed.
(§1) LaPlace's equation assumes the tension (T) in the wall of a hollow cylinder is directly proportional to the cylinders radius (r) and the pressure (p) across the wall, caused by the flow inside the cylinder, such that T=p×r. If one assumes that the tension in the wall of the aorta sections is equivalent to that recorded by the force transducer as the result of a manual stretch, then the pressure that would have given rise to such an increase in tension can be calculated using LaPlace's equation and the measured radius of each aorta section.
Data are presented as mean±SE.

Data set [2] concerns excised aorta sections of elderly mice. In words: Robustness of aorta sections to stretch (successful stretches without rupture). The note with it: for number of successful stretches without rupture, First Replicate / number of successful stretches without rupture, Second Replicate: 0.49 N max. tension stepwise, control 4 out of 6; for successful stretches without rupture, Mean (%): mean of two replicates, control 66.7. Format: in vivo, NMRI mice. How it is done:
(§2) Female NMRI mice, aged 50 weeks at the start of the trial, were housed at the animal facilities of the Department of Cell & Organism Biology, Lund University, Sweden. The animals were raised under the same conditions with a 12/12 hour light-dark cycle. Mice were fed rodent pellets ad libitum (Altromin no. 1314 Spezialfutterwerke, Lage, Germany) and given free access to drinking water. […] Mice in Group 1 were fed rodent pellets plus (2% w/v) Na2−AKG 2H2O (n=6), whilst mice in Group 2 were fed rodent pellets plus (2% w/v) Ca−AKG H2O (n=6). Mice allocated to Group 3 were only fed rodent pellets and were considered to be the Control group (n=6). The level of AKG fed as a supplement to the diet represented 2% of the voluntary feed intake of the mice, which was approx. 10-15% of body weight per day.
(§3) Aorta sections were suspended vertically, and in duplicate. The recorded signal was adjusted to zero for un-tensioned aorta sections with the aid of an offset dial mounted on the pre-amplifier unit. Each aorta section was then exposed to approx. 5 step-wise increases in tension (each step being approx. 0.09 N), until a final maximal tension of 0.49 N (measured using the FT03 Grass Force transducer) was achieved. This final level of tension was by no means close to the physiological maximum force recorded in aorta sections. The aorta sections were then allowed to relax totally before being exposed to repeat step-wise increases in tension a further two more times, in close succession. Aorta sections were subsequently removed and weighed.
In all the arteries studied, the initial stretch series (e.g. application of tension followed by relaxation) led to a decrease in elasticity with subsequent applications of tension. This effect may be compared to the sort of damage that would be expected to arise with a sudden increase in blood pressure (see FIG. 5).

Data set [3] has as its system abdominal aorta sections of elderly mice. Particulars: for elasticity of aorta sections (elastic recoil), first series of stretches: control 3.3×10^−5; for decrease in elastic recoil, second versus first series: repeated stretching protocol, control approximately 90%. On the procedure:
This time, experimental subjects that were in need of increased artery elasticity for a more general reason, namely advanced age, were studied.
as §2, with “Mice” for “Mice in Group 1 were fed rodent pellets plus (2% w/v) Na2−AKG 2H2O (n=6), whilst mice in Group 2 were fed rodent pellets plus (2% w/v) Ca−AKG H2O (n=6). Mice”
The mice were anaesthetized by exposure to 95% CO2 and killed by cervical dislocation. A dissected portion of the abdominal aorta, prior to the right- and left common iliac arteries, was carefully cleaned to remove adhering tissues. The aorta was cut into approx. 4.5 mm pieces with a diameter at rest of approx. 1 mm, and each piece was then securely attached at one end to a force transducer and at the other to a metal pin on a mounting block, as described in part (Harrison et al. Reprod Fertil Dev. 1997; 9(7):731-40, Harrison and Flatman Am J Physiol. 1999 December; 277(6 Pt 2):R1646-53).
Aorta sections were immersed into oxygenated and thermostatically controlled chambers (37° C.), having an internal depth and diameter of 5.5 and 3.2 cm, respectively, and holding 44 ml of phosphate buffered saline (0.15 M PBS, pH 7.4) comprising in mM; NaCl 136.91, KCl 2.68, Na2HPO4 8.08 and NaH2PO4 1.66. Force was measured using a FTO3 force displacement transducer (Grass Instrument, West Warwick, R.I.) connected to a home-built bridge amplifier which was interfaced with a 8S PowerLab A/D Converter (ADInstruments, Chalgrove, Oxfordshire, UK). […] The PowerLab 8S A/D converter was connected to an iBook G4 running Chart v.5.4 Software (AD Instruments, Australia). The data recording was at a sampling speed of 40.000 data samples per second (40 KHz) and the input impedance of the amplifier was 200 MΩ differential
as §3, with “This final level of tension was by no means close to the physiological maximum force recorded in aorta sections.” left out
This fall in the recording trace was measured over time using the Average Slope calculation available as part of Chart v.5.4 Software (AD Instruments, Australia).
as §1

The mark [4] stands for this setting: elderly mice fed 2% w/v in pellets for 182 days, n=6, mean±SE.

For `O=C(O)CCC(=O)C(=O)O` [AKG, alpha-ketoglutaric acid], the “effect of AKG-intake on arterial elasticity in bypass-operated rats” value in data set [1] (B+AKG versus B−AKG, P=0.047) is listed as “significant effect; also recorded: positive effect”. The “effect of AKG-intake on aorta elasticity in sham-operated control rats” value in data set [1] (S+AKG versus S−AKG, P=0.44) is listed as “no effect”.

Turning to `O=C([O-])CCC(=O)C(=O)[O-].[Ca+2]` [Ca−AKG, calcium alpha-ketoglutarate], in data set [2], the “number of successful stretches without rupture, First Replicate” value is 4 out of 6; the “number of successful stretches without rupture, Second Replicate” value is 5 out of 6; the “successful stretches without rupture, Mean (%)” value stood at 75.0%. The “elasticity of aorta sections (elastic recoil), first series of stretches” value in data set [3] (setting [4]) is 6.4×10^−5±2.7×10^−6 N ms^−1 mg^−1 wet wt. Also, in data set [3] (elderly mice, arterial elasticity), the “effect compared to Na−AKG group” value is reported as “better effects”. Besides, the “effect on arterial elasticity compared with the control mice” value in data set [3] (elderly mice, first stretch series (FIG. 4)) is reported as “significant effect”. In addition, in data set [3], the “decrease in elastic recoil, second versus first series” value was found to be 94%.

On to `O=C([O-])CCC(=O)C(=O)[O-].[Na+].[Na+]` [Na−AKG, sodium alpha-ketoglutarate], for which the “uptake after enteral administration” value is recorded as “faster uptake after enteral administration with higher peak blood levels”. For the same compound, in data set [2], the “number of successful stretches without rupture, First Replicate” value is recorded as 4 out of 6; the “number of successful stretches without rupture, Second Replicate” value is 5 out of 6; the “successful stretches without rupture, Mean (%)” value came out at 75.0%. For the same compound, the “elasticity of aorta sections (elastic recoil), first series of stretches” value in data set [3] (setting [4]) is reported as 4.3×10^−5±1.6×10^−6 N ms^−1 mg^−1 wet wt. The “elasticity of aorta sections (elastic recoil), second series of stretches” value in data set [3] (elderly mice fed 2% w/v in pellets for 182 days, n=6, mean±SE, control 3.4×10^−6) was 3.7×10^−6±1.1×10^−6 N ms^−1 mg^−1 wet wt. Also, the “decrease in elastic recoil, second versus first series” value in data set [3] worked out at 91%.
